Data taken from patent US20230398049A1, “TETRAPEPTIDES, COMPOSITIONS COMPRISING THEM, AND THEIR COSMETIC USE” (Sederma, priority 2020, published 2023).
Peptide text beside a SMILES is read from it. * marks the point of attachment. Palmitoyl = CCCCCCCCCCCCCCCC(=O)*

Experiments:
Format in all cases: cell-based
[1] = tested on: Collagen I (PIP); assay: ELISA assay of collagen I synthesis (PIP) by normal human fibroblasts; settings: NHF, 72 h contact, ELISA on supernatant
Protocol: (§1) Normal human fibroblasts (NHF) in culture are brought into contact with the products to be tested or their excipient (negative control) for 72 h. At the end of the contact, the culture supernatants are removed, and the syntheses of the dermal macromolecules are estimated by ELISA assays. An estimate of cell viability is carried out by Hoechst assay to weight the obtained data. Collagen I is evaluated via the PIP assay (carboxy-terminal propeptide of procollagen type I) which is a peptide fragment resulting from the enzymatic degradation of procollagen when the latter is excreted outside the fibroblast (therefore in the culture medium where the assay is carried out).

[2] = tested on: Fibronectine; assay: ELISA assay of fibronectin synthesis by normal human fibroblasts; settings: NHF, 72 h contact, ELISA on supernatant
Protocol: as §1

[3] = tested on: Decorine; assay: ELISA assay of decorin synthesis by normal human fibroblasts; settings: NHF, 72 h contact, ELISA on supernatant
Protocol: as §1

[4] = tested on: Fibrillin 1; assay: Immunofluorescence assay of Fibrillin 1 formation by normal human fibroblasts; settings: NHF, five day incubation
Protocol: Normal human fibroblasts (NHF) are cultured for at least 24 hours in fibroblast growth medium containing serum. Once confluence was reached, the cells are seeded and the actives and corresponding controls diluted in a culture medium are added. At the end of a five day incubation period, the supernatant is removed, the cells are washed with PBS and fixed. The cells are then incubated with the primary Fibrillin 1 monoclonal antibody (11C1.3) (Thermo Fisher) diluted in blocking buffer at a concentration of 1:200. The cells are incubated. The primary antibody is removed and the cells are washed with PBS. The secondary antibody was added at a dilution of 1:1000 in blocking buffer, then removed and the cells are washed with PBS. The formation of Fibrillin 1 by the cells is visualized using a fluorescence microscope. The obtained images are analyzed using an image processing software assigning a numerical value to the coverage density.

[5] = tested on: Collagen IV; assay: ELISA assay of collagen IV synthesis by normal human fibroblasts; settings: NHF, 72 h contact, concentrations of 2 to 3 ppm, ELISA on supernatant
Protocol: as §1

[6] = tested on: Hyaluronic acid; assay: ELISA assay of hyaluronic acid synthesis by normal human fibroblasts; settings: NHF, 72 h contact, concentrations of 2 to 3 ppm, ELISA on supernatant
Protocol: as §1

[7] = tested on: Nidogen-1; assay: LC-MS/MS analysis of secretome and matrisome of human dermal fibroblasts: Nidogen-1; settings: HDF, seven days culture, pooled secretome and matrisome, n=3, p<0.05
Protocol: (§2) Protocol Human dermal fibroblasts (HDF) are cultured with or without the peptide according to the invention (control) in n=3. The cells are cultured normally for five days in serum supplemented medium, then for two additional days in serum-free medium (culture of seven days in total). The cellular medium (secretome) is collected and the matrix separated from the cells with EDTA. The secretome and matrisome are kept for LC-MS/MS analysis. The cells are saved for future analysis. The secretome and matrisome compartments are pooled and processed as single samples.
(§3) Mass spectrometry is used to determine the total amount of certain proteins identified in the secretome and matrisome in the presence of the peptide of the invention and which are absent from the control following the day 7 of incubation. The proteins are denatured (in urea), reduced (in dithiothreitol) and mechanically dissociated (using ultrasound) prior to overnight digestion with the SMART Digest™ Trypsin Kit (Thermo Fisher).
(§4) The samples are analyzed on an UltiMate® 3000 rapid separation liquid chromatograph coupled to a Q Exactive™ Quadrupole-Orbitrap™ hybrid mass spectrometer: 200 ng injected at an analysis time of 90 minutes per sample.
(§5) Protein quantification is performed using Progenesis QI and protein identification using Mascot v2.5.1. Normalized protein concentrations are compared between the peptide and the control. […]

[8] = tested on: Decorine; assay: LC-MS/MS analysis of secretome and matrisome of human dermal fibroblasts: Decorine; settings: HDF, seven days culture, pooled secretome and matrisome, n=3, 0.05<p<0.1
Protocol: as §2, §3, §4, §5

[9] = tested on: SOD3; assay: LC-MS/MS analysis of secretome and matrisome of human dermal fibroblasts: SOD3; settings: HDF, seven days culture, pooled secretome and matrisome, n=3, 0.05<p<0.1
Protocol: as §2, §3, §4, §5

[10] = tested on: RAD23A; assay: LC-MS/MS analysis of secretome and matrisome of human dermal fibroblasts: RAD23A; settings: HDF, seven days culture, pooled secretome and matrisome, n=3, 0.05<p<0.1
Protocol: as §2, §3, §4, §5

Row | Compound | Collagen I (PIP) synthesis, change vs excipient control ([1]; concentrations of 5 to 15 ppm) | Fibronectine synthesis, change vs excipient control ([2]; concentrations of 5 to 15 ppm) | Decorine synthesis, change vs excipient control ([3]; concentrations of 5 to 15 ppm) | Fibrillin 1 formation (coverage density), change vs control ([4]; 10 ppm) | Collagen I (PIP) synthesis, change vs excipient control ([1]; concentrations of 2 to 3 ppm) | Fibronectine synthesis, change vs excipient control ([2]; concentrations of 2 to 3 ppm) | Decorine synthesis, change vs excipient control ([3]; concentrations of 2 to 3 ppm) | Collagen IV synthesis, change vs excipient control [5] | Hyaluronic acid synthesis, change vs excipient control [6] | Fibrillin 1 formation (coverage density), change vs control ([4]; 4 ppm) | Nidogen-1 protein amount vs control [7] | Decorine protein amount vs control [8] | SOD3 protein amount vs control [9] | RAD23A protein amount vs control [10]
1 | CCCCCCCCCCCCCCCC(=O)N[C@@H](CC(C)C)C(=O)N[C@@H](CCCCN)C(=O)N[C@@H](CC(C)C)C(=O)N[C@@H](CCC(=O)O)C(=O)O [Pal-LKLE-OH, palmitoyl-leucyl-lysyl-leucyl-glutamic acid] (Palmitoyl-LKLE-OH) | +81% | +48% | +21% | +81% (p < 0.05) |  |  |  |  |  |  |  |  |  | 
2 | Pal-ELED-OH: N-palmitoylated tetrapeptide Glu-Leu-Glu-Asp, free C-terminal acid; ELED is a fragment of Biglycan (Palmitoyl-ELED-OH; SMILES CCCCCCCCCCCCCCCC(=O)N[C@@H](CCC(=O)O)C(=O)N[C@@H](CC(C)C)C(=O)N[C@@H](CCC(=O)O)C(=O)N[C@@H](CC(=O)O)C(=O)O) |  |  |  |  | +42% | +70% | +69% | +42% | +28% | +97% (p < 0.05) | stimulation | stimulation | stimulation | stimulation
